Values quoted from earlier work, collected in paper PMC9549030, “Structural basis for specific inhibition of the deubiquitinase UCHL1” (Nature Communications, 2022).

Key:
Cathepsin K = settings: ref SI-Ref-7; cited from earlier work
Prolyl oligopeptidase = molecular target: Prolyl oligopeptidase; parameters: method as in SI-Ref-8; settings: ref SI-Ref-8; cited from earlier work
Caspase 1 = molecular target: Caspase 1; parameters: method as in SI-Ref-5; settings: ref SI-Ref-5; cited from earlier work

## CC(C)(F)C[C@H](N[C@@H](c1ccc(-c2ccc(S(C)(=O)=O)cc2)cc1)C(F)(F)F)C(=O)NC1(C#N)CC1 [Odanacatib]
Cathepsin K
  IC50: 0.2 nM

## N#C[C@@H]1CCCN1C(=O)[C@@H]1CCCN1C(=O)CCCc1ccccc1 [KYP-2047]
Prolyl oligopeptidase
  IC50: 3.9 nM

## CC(C)(C)[C@H](NC(=O)c1ccc(N)c(Cl)c1)C(=O)N1CCC[C@H]1C(=O)N[C@H](C#N)CC(=O)O [ML132]
Caspase 1
  IC50: 0.023 nM
